Patent US20120322751A1 (priority 2010, published 2012)
≈ marks a conversion by molar mass, not a printed value.

Legend:
[1] = system: TPA/pyr induced acute ear inflammation; experiment: TPA/pyr induced acute ear inflammation; assay type: in vivo, Swiss-Webster mice; conditions: topical 0.1% solution
Description: The inflammatory responses occur in three distinct phases, each apparently mediated by different mechanisms: an acute one characterized by local vasodilatation and increased capillary permeability, a subacute phase characterized by infiltration of leukocyte and phagocytic cells and a chronic proliferative phase, in which tissue degeneration and fibrosis occur. Acute inflammation generated by TPA (12-o-tetradecanoylforbolacetat/pyridine) induces an acute inflammatory reaction consisting of erythema, edema and polymorphonuclear leukocyte (PMN) infiltration The mechanism of anti-inflammatory mode of action of di-rhamnolipid BAC-3 is unknown. So far, it has been shown that Pseudomonas di-rhamnolipids stimulate, both chemotaxis and chemokinesis of leukocytes). In vitro studies examining the effects of pulmonary surfactant containing hydrophobic apopoproteins on human neutrophils have the important role of the protein component of the surfactant in enhancing the leukocyte chemotaxis, opsonizing bacteria, enhancing macrophage function, and stimulating antibody production. […] Correspondingly, it has been recognized that glycolipids (biosurfactants) through their virtue of hidrophilic head bind to proteins, i.e. receptors on cell membranes. […] It has been proposed that rhamnolipid increased the early recruitment of inflammatory cells to the site of inflammation without triggering a persistent, abnormal accumulation of neutrophils.
In the experiment it was proven that rhamnolipd (BAC-3) at concentration (1 mg/ml^−1, 0.1% w/v) was effective as a topical therapeutic anti-inflammatory agent in the TPA/pyr model of acute dermal ear inflammation in female Swiss-Webster mice over a time-course of 24 hours. The time of maximal reduction of inflammation was dependent on the time of treatment, with respect to induction.
Post treatment with BAC-3 two hour after inflammation reversed established inflammation with maximal effect after 11 hours. (32% lower inflammation in comparison with control). […]

[2] = system: DNCB induced delayed type hypersensitivity reactions; experiment: Delayed type hypersensitivity (DTH) in DNCB sensitised nude guinea pigs; assay type: in vivo, nude guinea pig; conditions: topical twice daily during 7 days; by day 7; preliminary data
Protocol: The nude guinea pig is used as test animal because of different animal skins, nude guinea pig skin is claimed to be the one closest resembling human skin. […] In DNCB sensitised guinea pigs delayed type hypersensitivity reactions were induced with patches soaked with 0.25% (w/v) DNCB in ethanol/propylene glycol kept on the animals back for 24 hours. The test sites were treated twice daily during 7 days with: Dovonex (commercially available ointment with calcipotriene; 1% (w/w) BAC-3 in US petrolatum. Locobasis (commercially available ointment, identical as carrier for steroids; 1% (w/w) non purified BAC-3 (86%) in US petrolatum; US petrolatum; Preferid (commercially available steroid).

[3] = Preservation of structure during 10 years after production; assay type: physicochemical; conditions: under nitrogen N2 in glass bottles at room temperature
Description: On the figure has been shown the purity of the rhamnolipid BAC-3 (FIG. 10) and mass spectrum (FIG. 11) ten years after production. The production of the rhamnolipid BAC-3 purity>98.5 is very expensive procedure. Therefore one of the most important task of rhamnolipid BAC-3 production is achieving clinically acceptable purity without using HPLC-MS equipment, except for control purposes of the purity and mass spectrum.

[4] = system: Normal human fibroblasts derived from foreskin; experiment: Collagen synthesis and total protein synthesis by human fibroblasts in vitro; assay type: cell-based
Protocol: a) Neonatal human fibroblast culture was established from a sample of neonatal human foreskin obtained by circumcision. After removal of subcutaneous tissue by dissection, the sample was desegregated by trypsinization with 0.25% trypsin and 1 mM EDTA solution (Gibco). Released cells were propagated in 100 mm plastic tissue culture dishes (Corning) in incubator at 37° C. saturated with 5% CO2. The medium, changed twice weekly, was a mixture of 0.2 mg/ml calcium, 4500 mg/l glucose in Dulbecco's modified Eagle's medium (DMEM, Gibco) supplemented with 10% fetal bovine serum FBS (Gemini-Bio-Products), 0.292 mg/ml L-glutamine (Gibco) and antibiotic-antimycotic solution containing 100 U penicillin-G/ml, 100 mcg/ml streptomycin and 0.25 mcg/ml fungizione in normal saline (Gemini-Bio-Products). Primary culture cells were trypsinized. To achieve enough cells of the same passage, the cells were replanted two times during two weeks and transplanted in bigger dishes before incubation started. At density 5×10^5 NHK 98-009 of fibroblasts of passage 4 was transplanted in Petri dishes in DMEM medium. When cells achieved ca 50% of confluence they were treated with solutions of BAC-3 with 0; 1; 10; 100; 250; and 500 μg/ml and 50 μg/ml of ascorbic acid (Sigma). All solutions were filtrated through 0.2 μm filters (Fisher). The media with or without BAC-3 were changed once after two days. 100 μg of ascorbic acid were added each day in media until achieving final concentration of 50 μg/ml of ascorbic acid in each of Petri dishes. […]
Normal human fibroblasts derived from foreskin were cultured in T-25 flasks and were treated with BAC-3 at concentrations of 1 μg/ml, 10 μg/ml, and 100 μg/ml in the way previously described. […] One half of the sonicate was hydrolyzed in 6N HCl; hydroxyproline was measured in the hydrolisate to determine collagen synthesis. […] Total collagen per flask was determined multiplying the hydroxiproline value by 7.8. […]

[5] = system: human mononuclear cells (MNC); experiment: cells; assay type: cell-based
[6] = biological target: T1, Guinea pig lung LTC4 synthase (Cavia porcellus, UniProt A6XA80); experiment: Leukotriene C4 synthase inhibition (EIA); assay type: biochemical; conditions: highest concentration (1,000 μM/ml); solvent DMSO
T1 construct: Guinea pig lung LTC4 synthase was used; from tissue; host or cells: guinea pig lung
T1 sequence (A6XA80 1-150): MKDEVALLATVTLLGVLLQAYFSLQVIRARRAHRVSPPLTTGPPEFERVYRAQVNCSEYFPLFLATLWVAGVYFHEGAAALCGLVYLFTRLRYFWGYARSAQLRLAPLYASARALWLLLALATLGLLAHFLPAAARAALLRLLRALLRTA
Protocol: Leukotriene C4 (LTC4) synthase is crucial in the formation of LTC4 from LTA4. Taken together with other assays for enzymes involved in the lipoxygenase pathway (e.g. 5-lipoxygenase, LTA4 hydrolase), a locus of action can be established, mechanism of agents' activities which inhibit the formation of the leukotrienes.
Guinea pig lung LTC4 synthase was used. Test compound and/or vehicle was preincubated with 180 μg/ml enzyme dissolved in phosphate buffer pH 7.8 for 15 minutes at 37° C. The reaction was initiated by addition of 2.5 μg/ml LTA4 methyl ester for another 30 minute incubation period and terminated by further addition of ice-cold methanol. Determination of the amount of LTC4 formed was read spectrophotometrically by enzyme immunoassay kit (EIA). Compounds was tested at the concentrations of 1,000; 100; 10; and 1 μM/ml. The used solvent was DMSO.

| SMILES | decrease of inflammation vs control ear, pre-treatment ([1]; single dose 1 hour before TPA/pyr) [%] | lower inflammation vs control, post treatment ([1]; two hours after induction, maximal effect after 11 hours) [%] | inhibition of inflammation vs control ear, concurrent treatment ([1]; with TPA/pyr induction, at 6 hours) | state of DTH test area [2] | structure after storage [3] | percent of protein synthesis dedicated to collagen synthesis ([4]; 1, 10, 100 μg/ml, harvested day 4 and day 7, vs control cells, p<0.05 ANOVA) | total collagen synthesis per flask ([4]; treated as in example 6, FIG. 9 (2a)) | overall protein synthesis per flask ([4]; treated as in example 6, FIG. 9 (2b)) | inhibition of MNC proliferation with SEB as stimulus [5] | proliferation of MNC as response to different stimulants [5] | IC50 ([5]; Homo sapiens, PHA at 1 μg/ml, printed 'at the concentration of 5 μg/ml', read-out: IC50, inhibition of MNC proliferation in response to PHA) [µg/mL] | inhibition at 1000 µM [6] [%] |
| --- | --- | --- | --- | --- | --- | --- | --- | --- | --- | --- | --- | --- |
| CCCCCCCC(CC(=O)O)OC(=O)CC(CCCCCCC)OC1OC(C)C(O)C(O)C1OC1OC(C)C(O)C(O)C1O (stereo not shown) [BAC-3] | 15 | 32 | about 32% | almost healed with only a slight erythema present | did not change its structure | significantly reduced | decreases synthesis of collagen | increase in overall synthesis | almost no inhibition | inhibited proliferation | 35 (≈ 53.8 µM) | 81 |
| C=C1/C(=C\C=C2/CCC[C@]3(C)[C@@H]([C@H](C)/C=C/[C@@H](O)C4CC4)CC[C@@H]23)C[C@@H](O)C[C@@H]1O [calcipotriene, reference compound] |  |  |  | almost healed with only a slight erythema present |  |  |  |  |  |  |  |  |
